In the test the test system is PGE2 production by BUD-8 skin cell fibroblasts. Briefly: PGE2 production by BUD-8 skin cell fibroblasts (radioimmunoassay). The class given is cell-based, human. How it is done: The effect of the compound of the present invention on the proliferative capacity of human BUD-8 skin fibroblasts was measured with the use of a ^3 H-thymidine incorporation assay using culture conditions which were similar to those used for a Con-A blastogenesis assay, described previously. Cultured skin cells were detached from the surface of tissue culture flasks mechanically with a Teflon scraper. The cells were washed, resuspended in incubation medium and the viabilities were determined. These cells were then plated in triplicate at a density of 2×10^3 cells/0.1 ml/microtiter well for the proliferation assay and a density of 1×10^4 cells/0.1 ml/microtiter well for the assays to quantitate PGE2 and LTB4. To these cells was added incubation medium containing indomethacin to inhibit prostaglandin production, or nordihydroguaiaretic acid (NDGA) to inhibit leukotriene production (positive controls).
After 18 hours of culture, samples of the BUD-8 skin cell supernatants were collected from one set of microtiter plates and frozen until assayed for PGE2 or for LTB4 content using the radioimmunoassays described below.
A radioinmunoassay (New England Nuclear) was used to quantitate PGE2 levels in BUD-8 skin cell culture supernatants. Briefly, into each polypropylene tube were mixed 0.1 ml anti-PGE2, 0.1 ml ^125 1-PGE2 and 0.1 ml PGE2 standard or PGE2 containing sample. The BUD-8 skin culture supernatants were diluted 1:2 prior to addition to the radioimmunoassay. Tubes were refrigerated overnight. A polyethylene glycol solution (16%, 6,000 m.w.) was then added to precipitate immune complexes and the radioactivity in the precipitate was counted in a gamma counter.

Structures are written as SMILES.

For the compound `CCCCCCCOCCCO[C@@H]1[C@H]2OC(C)(C)O[C@H]2O[C@@H]1[C@H](O)CO` [IIg], the PGE2 in supernatant reads like this: (1 ug/ml) 5.2 ± 0.9 pg PGE2 /50 ul supernatant; (10 ug/ml) 5.6 ± 0.4 pg PGE2 /50 ul supernatant; (25 ug/ml) 4.1 ± 0.3 pg PGE2 /50 ul supernatant; (100 ug/ml) 11.0 ± 1.4 pg PGE2 /50 ul supernatant; (300 ug/ml) 19.6 ± 1.6 pg PGE2 /50 ul supernatant; (750 ug/ml) 7.3 ± 0.2 pg PGE2 /50 ul supernatant. In addition, the “calculated PGE2 produced/10^5 BUD-8 cells” value by setting is: (1 ug/ml) 157 pg per 10^5 cells; (10 ug/ml) 173 pg per 10^5 cells; (25 ug/ml) 111 pg per 10^5 cells; (100 ug/ml) 388 pg per 10^5 cells; (300 ug/ml) 731 pg per 10^5 cells; (750 ug/ml) 241 pg per 10^5 cells. In addition, the inhibition at 1 µg/mL (Homo sapiens, Fibroblast, 18 h, 1 ug/ml, read-out: % Effect on PGE2 production) was found to be 45%. Moreover, the inhibition at 10 µg/mL (Homo sapiens, Fibroblast, 18 h, 10 ug/ml, read-out: % Effect on PGE2 production) stood at 40%. Further, the inhibition at 25 µg/mL (Homo sapiens, Fibroblast, 18 h, 25 ug/ml, read-out: % Effect on PGE2 production) is 57%. In addition, the inhibition at 100 µg/mL (Homo sapiens, Fibroblast, 18 h, 100 ug/ml, read-out: % Effect on PGE2 production) is -17%. For the same compound, the inhibition at 300 µg/mL (Homo sapiens, Fibroblast, 18 h, 300 ug/ml, read-out: % Effect on PGE2 production) was -108%. The inhibition at 750 µg/mL (Homo sapiens, Fibroblast, 18 h, 750 ug/ml, read-out: % Effect on PGE2 production) is 22%.

The record behind these values is patent US5298494A, “Monosaccharides having anti-proliferation and anti-inflammatory activity, compositions and uses thereof” (Greenwich Pharmaceuticals Incorporated, priority 1993, dated 1994).
